Source: patent publication US20260265222A1, “1H-PYRROLE-2-AMIDE DERIVATIVE, PHARMACEUTICAL COMPOSITION AND METHOD FOR TREATING AND/OR PREVENTING YTHDC1-RELATED DISEASES” (priority 2023, published 2026)

Molecular target: T1, GST-YTHDC1 (345-509) protein (Homo sapiens, UniProt Q96MU7)
T1 construct: GST-YTHDC1 (345-509) protein
Assay: Fluorescence polarization-based in vitro enzyme-level test against YTHDC1
Assay type: binding
Conditions: 30 nM GST-YTHDC1 (345-509), FAM-labeled m6A-modified single-stranded oligonucleotide, 18° C., 4 hours; read-out: IC50 (Inhibitory Activity against YTHDC1)

IC50 | Structure (SMILES)
344 nM | CN1CCN(c2ncc(-c3ccc(NC(=O)c4cc(C(=O)c5ccccc5Br)c[nH]4)cc3)o2)CC1 [Compound 80]
61 nM | O=C(Nc1ccc(-c2cnc(N3CCNCC3)o2)cc1)c1cc(C(=O)c2ccccc2C(F)(F)F)c[nH]1 [Compound 81]
125 nM | CC(C)(C)OC(=O)N1CCN2c3ccc(NC(=O)c4cc(C(=O)c5ccccc5C(F)(F)F)c[nH]4)cc3OCC2C1 (stereo not shown) [Compound 82]
98.7 nM | O=C(Nc1ccc2c(c1)OCc1ccccc1-2)c1cc(C(=O)c2ccccc2C(F)(F)F)c[nH]1 [Compound 83]
> 50000 nM | CC(C)(C)OC(=O)N1CCN(c2ncc(-c3ccc(NC(=O)c4cc(C(=O)C5C=CC=CC5Br)c[nH]4)cc3)o2)CC1 (stereo not shown) [Compound 84]
234 nM | O=C(Nc1ccc(-c2cnc(N3CCN(C4COC4)CC3)o2)cc1)c1cc(C(=O)c2ccccc2Br)c[nH]1 [Compound 85]
847 nM | O=C(Nc1ccc(-c2cnc(N3CCN(CCO)CC3)o2)cc1)c1cc(C(=O)c2ccccc2Br)c[nH]1 [Compound 86]
2320 nM | O=C(Nc1ccc(-c2cnc(N3CCN(S(=O)(=O)C4CC4)CC3)o2)cc1)c1cc(C(=O)C2C=CC=CC2Br)c[nH]1 (stereo not shown) [Compound 87]
71.2 nM | O=C(Nc1ccc(-c2cnc(N3CCN(C4COC4)CC3)o2)cc1)c1cc(C(=O)c2ccccc2C(F)(F)F)c[nH]1 [Compound 88]
> 50000 nM | O=C(Nc1ccc(-c2cnc(N3CCN(S(=O)(=O)Cc4ccccc4)CC3)o2)cc1)c1cc(C(=O)C2C=CC=CC2C(F)(F)F)c[nH]1 (stereo not shown) [Compound 89]
3.7 nM | COc1cc(NC(=O)c2cc(C(=O)c3ccccc3C(F)(F)F)c[nH]2)ccc1-c1cnco1 [Compound 90]
937 nM | O=C(Nc1ccc2c(c1)OCC1CNCCN21)c1cc(C(=O)c2ccccc2C(F)(F)F)c[nH]1 (stereo not shown) [Compound 91]
409 nM | CN1CCN2c3ccc(NC(=O)c4cc(C(=O)c5ccccc5C(F)(F)F)c[nH]4)cc3OCC2C1 (stereo not shown) [Compound 92]
8.92 nM | O=C(Nc1ccc(-c2cnco2)c(F)c1)c1cc(C(=O)c2ccccc2C(F)(F)F)c[nH]1 [Compound 93]
113 nM | O=C(Nc1ccc(-c2ocnc2CO)cc1)c1cc(C(=O)c2ccccc2C(F)(F)F)c[nH]1 [Compound 94]
39 nM | Cc1cc(-c2cnco2)ccc1NC(=O)c1cc(C(=O)c2ccccc2C(F)(F)F)c[nH]1 [Compound 95]
14.5 nM | COCOc1cc(NC(=O)c2cc(C(=O)c3ccccc3C(F)(F)F)c[nH]2)ccc1-c1cnco1 [Compound 96]
50.9 nM | CN(C)c1cc(NC(=O)c2cc(C(=O)c3ccccc3C(F)(F)F)c[nH]2)ccc1-c1cnco1 [Compound 97]
15 nM | CN(C)CCOc1cc(NC(=O)c2cc(C(=O)c3ccccc3C(F)(F)F)c[nH]2)ccc1-c1cnco1 [Compound 98]
258 nM | CN(CCO)c1cc(NC(=O)c2cc(C(=O)c3ccccc3C(F)(F)F)c[nH]2)ccc1-c1cnco1 [Compound 99]
162 nM | CS(=O)(=O)c1ccc(NC(=O)c2cc(C(=O)c3ccccc3C(F)(F)F)c[nH]2)cc1 [Compound 100]
43 nM | CN(C)CCOc1cc(NC(=O)c2cc(C(=O)c3ccccc3C(F)(F)F)c[nH]2)ccc1-c1cnco1 [Compound 101]
86 nM | O=C(Nc1ccc(-c2cncnc2)cc1)c1cc(C(=O)c2ccccc2C(F)(F)F)c[nH]1 [Compound 102]
14 nM | CCN(C)c1ncc(-c2ccc(NC(=O)c3cc(C(=O)c4ccccc4C(F)(F)F)c[nH]3)cc2)o1 [Compound 103]
9 nM | O=C(Nc1ccc(-c2cnc(N3CCC3)o2)cc1)c1cc(C(=O)c2ccccc2C(F)(F)F)c[nH]1 [Compound 104]
9.7 nM | O=C(Nc1ccc(-c2cnco2)cc1)c1cc(C(=O)c2ccccc2C(F)(F)F)c[nH]1 [Compound 105]
1770 nM | O=C(Nc1ccc(-c2ccc(N3CCCC3)cc2)cc1)c1cc(C(=O)c2ccccc2C(F)(F)F)c[nH]1 [Compound 106]
22 nM | CN1C(=O)Cc2cc(-c3ccc(NC(=O)C4=CC(C(=O)c5ccccc5C(F)(F)F)CN4)cc3)ccc21 (stereo not shown) [Compound 107]
